Calls of active or inactive are those of the source. The calls are words filed in the database; no cut-off is given here.
Columns and labels:
[1] = Metabolic stability in human liver microsomes assessed as compound remaining after 10 mins; assay type: ADME, Microsome; settings: read-out: Stability
[2] = Metabolic stability in rat liver microsomes assessed as compound remaining after 10 mins; assay type: ADME, Microsome; settings: read-out: Stability
[3] = Toxicity in C57BL/6 mouse assessed as induction of convulsions at 10 mg/kg, ip coadministered with (4R,5R)-5-phenyl-4-(4-(phenylethynyl)pyridin-2-yl)oxazolidin-2-one during 3 hrs study; assay type: organism-based; settings: in vivo
[4] = Metabolic stability in mouse liver microsomes assessed as compound remaining after 10 mins; assay type: ADME, Microsome; settings: read-out: Stability
[5] = Fraction unbound in human serum; assay type: ADME, cell-free
[6] = Toxicity in C57BL/6 mouse assessed as induction of convulsions at 10 mg/kg, ip during 3 hrs study; assay type: organism-based; settings: in vivo
[7] = molecular target: T1, Metabotropic glutamate receptor 5 (Homo sapiens, UniProt P41594); assay: Agonist activity at human mGluR5A transfected in HEK293 cells assessed as induction of calcium release by FLIPR assay; assay type: functional, cell-based
Target sequence in this assay (P41594 whole entry): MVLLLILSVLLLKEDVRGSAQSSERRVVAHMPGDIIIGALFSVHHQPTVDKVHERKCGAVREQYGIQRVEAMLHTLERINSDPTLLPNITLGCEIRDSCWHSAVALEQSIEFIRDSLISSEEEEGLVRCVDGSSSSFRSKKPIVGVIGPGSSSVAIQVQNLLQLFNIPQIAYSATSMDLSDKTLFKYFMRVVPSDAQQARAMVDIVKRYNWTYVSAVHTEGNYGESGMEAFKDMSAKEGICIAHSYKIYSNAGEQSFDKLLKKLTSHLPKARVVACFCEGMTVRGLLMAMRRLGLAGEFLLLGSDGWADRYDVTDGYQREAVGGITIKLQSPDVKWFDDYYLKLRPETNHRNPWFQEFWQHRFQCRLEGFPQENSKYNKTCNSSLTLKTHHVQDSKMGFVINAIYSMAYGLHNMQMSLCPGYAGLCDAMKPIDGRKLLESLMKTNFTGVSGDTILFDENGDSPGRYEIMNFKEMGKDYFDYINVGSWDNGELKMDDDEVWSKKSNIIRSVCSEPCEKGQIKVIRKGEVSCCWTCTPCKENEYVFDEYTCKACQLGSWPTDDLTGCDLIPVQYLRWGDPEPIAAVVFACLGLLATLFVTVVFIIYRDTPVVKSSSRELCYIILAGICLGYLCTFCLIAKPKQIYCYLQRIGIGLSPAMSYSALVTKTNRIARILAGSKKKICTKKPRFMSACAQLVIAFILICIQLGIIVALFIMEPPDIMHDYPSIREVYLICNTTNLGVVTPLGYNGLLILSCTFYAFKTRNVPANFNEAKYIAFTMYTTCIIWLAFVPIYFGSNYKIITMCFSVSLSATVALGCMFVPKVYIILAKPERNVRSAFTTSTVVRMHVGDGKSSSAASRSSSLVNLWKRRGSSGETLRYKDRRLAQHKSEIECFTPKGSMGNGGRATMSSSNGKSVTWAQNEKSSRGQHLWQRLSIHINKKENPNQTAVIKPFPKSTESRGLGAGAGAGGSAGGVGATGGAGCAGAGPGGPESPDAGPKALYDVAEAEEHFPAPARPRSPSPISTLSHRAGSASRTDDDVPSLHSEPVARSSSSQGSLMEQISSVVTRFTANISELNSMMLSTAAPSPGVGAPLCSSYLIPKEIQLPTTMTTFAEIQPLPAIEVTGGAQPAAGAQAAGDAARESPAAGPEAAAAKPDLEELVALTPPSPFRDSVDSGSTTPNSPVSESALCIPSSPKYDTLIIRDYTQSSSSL

[8] = molecular target: T1, Metabotropic glutamate receptor 5; assay: Displacement of [3H]-MPEPy from human mGluR5A transfected in HEK293 cell membranes after 60 mins by microbeta liquid scintillation counting analysis
Target sequence in this assay (P41594 whole entry): as above

[9] = molecular target: T1, Metabotropic glutamate receptor 5; assay: Positive allosteric modulation of human mGluR5A transfected in HEK293 cells assessed as potentiation of L-glutamate-induced calcium release incubated for 10 mins by FLIPR assay; assay type: functional, cell-based
Target sequence in this assay (P41594 whole entry): as above

[10] = Ratio of drug uptake in C57BL/6 mouse brain to plasma at 3 mg/kg, sc measured after 60 mins; assay type: ADME, organism-based; settings: read-out: BPR
[11] = Toxicity in C57BL/6 mouse assessed as induction of convulsions at 30 mg/kg, ip during 3 hrs study; assay type: organism-based; settings: in vivo
[12] = Ratio of drug uptake in C57BL/6 mouse brain to plasma at 10 mg/kg, sc measured after 60 mins; assay type: ADME, organism-based; settings: read-out: BPR
[13] = Drug uptake in C57BL/6 mouse brain at 3 mg/kg, sc measured after 60 mins; assay type: ADME, organism-based; settings: read-out: Drug uptake
[14] = Fraction unbound in mouse serum; assay type: ADME, cell-free
[15] = Drug uptake in C57BL/6 mouse brain at 10 mg/kg, sc measured after 60 mins; assay type: ADME, organism-based; settings: read-out: Drug uptake
[16] = Ratio of drug uptake in C57BL/6 mouse brain to plasma at 1 mg/kg, sc measured after 60 mins; assay type: ADME, organism-based; settings: read-out: BPR
[17] = Drug uptake in C57BL/6 mouse plasma at 10 mg/kg, sc measured after 60 mins; assay type: ADME, organism-based
[18] = Drug uptake in C57BL/6 mouse plasma at 1 mg/kg, sc measured after 60 mins; assay type: ADME, organism-based
[19] = tested on: Mus musculus; assay: Cognitive enhancing effect in sc dosed C57BL/6 mouse assessed as time spent on exploring novel objects administered 1 hr before acquisition session followed by acquisition session for 15 mins by novel object recognition test; assay type: functional; settings: C57BL/6, sc, read-out: MED
[20] = Drug uptake in C57BL/6 mouse brain at 1 mg/kg, sc measured after 60 mins; assay type: ADME, organism-based; settings: read-out: Drug uptake
[21] = Drug uptake in C57BL/6 mouse plasma at 3 mg/kg, sc measured after 60 mins; assay type: ADME, organism-based
[22] = molecular target: T1, Metabotropic glutamate receptor 5; assay: Agonist activity at human mGluR5A transfected in HEK293 cells assessed as induction of calcium release up to 3 uM by FLIPR assay; assay type: functional, cell-based
Target sequence in this assay (P41594 21-1212 limits assumed): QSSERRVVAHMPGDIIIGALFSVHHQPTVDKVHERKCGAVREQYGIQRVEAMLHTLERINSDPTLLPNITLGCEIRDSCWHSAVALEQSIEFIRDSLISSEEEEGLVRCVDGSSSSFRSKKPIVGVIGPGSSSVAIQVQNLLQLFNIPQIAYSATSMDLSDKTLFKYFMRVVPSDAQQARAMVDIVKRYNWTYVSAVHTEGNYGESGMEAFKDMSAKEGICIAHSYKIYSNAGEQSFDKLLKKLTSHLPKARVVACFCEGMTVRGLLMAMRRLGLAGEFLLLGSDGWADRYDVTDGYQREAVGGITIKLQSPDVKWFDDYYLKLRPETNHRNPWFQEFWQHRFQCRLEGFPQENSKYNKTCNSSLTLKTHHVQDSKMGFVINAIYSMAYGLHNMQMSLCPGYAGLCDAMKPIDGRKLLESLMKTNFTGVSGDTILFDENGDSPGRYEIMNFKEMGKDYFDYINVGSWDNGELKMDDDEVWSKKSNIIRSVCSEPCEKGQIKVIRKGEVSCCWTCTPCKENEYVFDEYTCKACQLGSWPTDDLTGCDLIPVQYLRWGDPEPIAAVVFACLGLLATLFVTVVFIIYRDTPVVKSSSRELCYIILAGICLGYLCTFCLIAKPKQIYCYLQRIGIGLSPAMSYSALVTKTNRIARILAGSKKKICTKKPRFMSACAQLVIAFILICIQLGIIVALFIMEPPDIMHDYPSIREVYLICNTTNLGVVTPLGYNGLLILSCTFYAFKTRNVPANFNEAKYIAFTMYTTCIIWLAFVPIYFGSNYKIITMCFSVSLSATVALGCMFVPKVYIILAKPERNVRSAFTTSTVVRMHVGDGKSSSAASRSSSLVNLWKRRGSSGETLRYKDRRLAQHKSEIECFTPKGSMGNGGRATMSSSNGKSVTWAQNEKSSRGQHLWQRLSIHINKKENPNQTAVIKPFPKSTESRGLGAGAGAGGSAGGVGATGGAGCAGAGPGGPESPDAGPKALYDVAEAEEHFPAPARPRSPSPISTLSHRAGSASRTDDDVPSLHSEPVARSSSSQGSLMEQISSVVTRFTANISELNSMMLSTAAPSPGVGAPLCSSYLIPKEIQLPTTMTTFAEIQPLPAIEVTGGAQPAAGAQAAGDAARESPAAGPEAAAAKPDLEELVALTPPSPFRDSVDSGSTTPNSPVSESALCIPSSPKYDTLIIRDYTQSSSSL

[23] = molecular target: T1, Metabotropic glutamate receptor 5; assay: Antagonist activity against human mGluR5A transfected in HEK293 cells assessed as inhibition of L-glutamate-induced calcium release up to 3 uM after 10 mins by FLIPR assay; assay type: functional, cell-based
Target sequence in this assay (P41594 21-1212 limits assumed): as above

[24] = Fraction unbound in rat serum; assay type: ADME, cell-free
[25] = Toxicity in C57BL/6 mouse assessed as induction of convulsions at 3 mg/kg, ip during 3 hrs study; assay type: organism-based; settings: in vivo
[26] = molecular target: T1, Metabotropic glutamate receptor 5; assay: Displacement of [3H]-MPEP from human mGluR5A transfected in HEK293 cells after 60 mins by microbeta liquid scintillation counting analysis; assay type: cell-based
Target sequence in this assay (P41594 whole entry): as the sequence (P41594 whole entry) above

[27] = tested on: Mus musculus; assay: Ex vivo receptor occupancy at mGluR5A in C57BL/6 mouse at 10 and 30 mg/kg; assay type: functional, organism-based
[28] = Toxicity in C57BL/6 mouse assessed as induction of convulsions at 1 mg/kg, ip during 3 hrs study; assay type: organism-based; settings: in vivo
[29] = molecular target: T1, Metabotropic glutamate receptor 5; assay: Negative allosteric modulation of human mGluR5A transfected in HEK293 cells assessed as inhibition of L-glutamate-induced calcium release after 10 mins by FLIPR assay; assay type: functional, cell-based
Target sequence in this assay (P41594 whole entry): as above

remaining at 10 min [1] [%]	remaining at 10 min [2] [%]	fraction unbound [5]	EC50 [7] [nM]	Ki [8] [nM]	EC50 [9] [nM]	fraction unbound [14]	SMILES	further results
97	85	0.035	315				O=C1N[C@H](c2cncc(C#Cc3cncc(F)c3)c2)[C@@H](c2ccc(F)cc2)O1	Activity [3]: Non-Toxic; remaining at 10 min [4]: 77%; Activity [6]: Toxic
			50	2.8	0.2		O=C1N[C@H](c2cncc(C#Cc3ccccc3)c2)[C@@H](c2ccc(F)c(F)c2)O1	
100	100	0.076	> 3000	14	10	0.13	O=C1N[C@H](c2cncc(C#Cc3ncccc3F)c2)[C@@H](c2ccc(F)cc2)O1	Kp at 1 h [10]: 0.14; Activity [11]: Non-Toxic; Kp at 1 h [12]: 0.1 to 0.11; concentration at 1 h [13]: 182 nM; concentration at 1 h [15]: 542 nM; Kp at 1 h [16]: 0.15; concentration at 1 h [17]: 5250 nM; concentration at 1 h [18]: 375 nM; minimal effective dose [19]: 10 mg/kg; remaining at 10 min [4]: 100%; concentration at 1 h [20]: 56 nM; concentration at 1 h [21]: 1430 nM
			> 3000	1.8	4.2		O=C1N[C@H](c2cncc(C#Cc3ccccc3)c2)[C@@H](c2cccc(F)c2F)O1	
97	100	0.064	> 3000	23	25	0.069	O=C1N[C@H](c2cncc(C#Cc3ccccn3)c2)[C@@H](c2ccc(F)cc2)O1	remaining at 10 min [4]: 89%
			> 3000		> 3000		O=C1N[C@H](c2cncc(C#Cc3ccccc3)c2)[C@@H](c2ccccc2Cl)O1 [BMS-984923]	
		0.005		2.1	1.5	0.021	O=C1N[C@H](c2ccnc(C#Cc3ccccc3)c2)[C@@H](c2ccccc2)O1	Activity [22]: inactive; inhibition [23]: inactive; fraction unbound [24]: 0.012
		0.008	> 3000	1.4	0.7	0.047	O=C1N[C@H](c2cncc(C#Cc3ccccc3)c2)[C@@H](c2ccccc2)O1	Activity [11]: Non-Toxic; Activity [22]: inactive; inhibition [23]: inactive; fraction unbound [24]: 0.007
		0.009		44	9.4	0.011	O=C1N[C@H](c2cccc(C#Cc3ccccc3)n2)[C@@H](c2ccccc2)O1	Activity [11]: Non-Toxic; Activity [22]: inactive; inhibition [23]: inactive; fraction unbound [24]: 0.009
92	100	0.034	> 3000	15	4.8	0.11	O=C1N[C@H](c2cncc(C#Cc3ccnc(F)c3)c2)[C@@H](c2ccc(F)cc2)O1	Activity [6]: Toxic
70	65	0.14	> 3000	16	14	0.1	O=C1N[C@H](c2cncc(C#Cc3ccncc3)c2)[C@@H](c2ccc(F)cc2)O1	remaining at 10 min [4]: 69%
			> 3000	1.9	1.5		O=C1N[C@H](c2cncc(C#Cc3ccccc3)c2)[C@@H](c2ccccc2F)O1	
			> 3000	1.4	1.2		O=C1N[C@H](c2cncc(C#Cc3ccccc3)c2)[C@@H](c2ccc(F)cc2F)O1	Activity [25]: Toxic
		< 0.001			38	0.001	O=C1N[C@H](c2cccc(C#Cc3ccccc3)c2)[C@@H](c2ccccc2)O1	Activity [22]: inactive; inhibition [23]: inactive; fraction unbound [24]: 0.001; Ki [26]: 8.9 nM
							O=C1N[C@H](c2cncc(C#Cc3ccccc3)c2)[C@@H](c2cc(F)ccc2F)O1	Activity [11]: Non-Toxic; Activity [27]: Active
81	92	0.004	504	1.7	0.4	0.009	O=C1N[C@H](c2cncc(C#Cc3ccccc3)c2)[C@@H](c2ccc(F)cc2)O1	remaining at 10 min [4]: 80%; Activity [28]: Toxic
		0.006				0.01	O=C1N[C@H](c2cc(C#Cc3ccccc3)ccn2)[C@@H](c2ccccc2)O1	Activity [22]: inactive; inhibition [23]: inactive; fraction unbound [24]: 0.009
							O=C1N[C@H](c2cncc(C#Cc3ccccc3)c2)[C@@H](c2cccc(F)c2)O1	Activity [25]: Toxic
			> 3000	1.4	5.5		O=C1N[C@H](c2cncc(C#Cc3ccccc3)c2)[C@@H](c2cc(F)cc(F)c2)O1	
			> 3000	1.8	0.9		O=C1N[C@H](c2cncc(C#Cc3ccccc3)c2)[C@@H](c2cccc(Cl)c2)O1	
76	85	0.082	273	32	3.3	0.11	O=C1N[C@H](c2cncc(C#Cc3cccnc3)c2)[C@@H](c2ccc(F)cc2)O1	remaining at 10 min [4]: 87%
			> 3000	2.7	> 3000		O=C1N[C@H](c2cncc(C#Cc3ccccc3)c2)[C@@H](c2c(F)cccc2F)O1	IC50 [29]: 27 nM
			333	2.2	0.6		O=C1N[C@H](c2cncc(C#Cc3ccccc3)c2)[C@@H](c2ccc(Cl)cc2)O1	

From ChEMBL document CHEMBL4477253, “Oxazolidinone-based allosteric modulators of mGluR5: Defining molecular switches to create a pharmacological tool box” (Bioorg Med Chem Lett, 2016)
